{
  "source": "patent US4791215A",
  "about": "“Derivatives of glutamic acid and aspartic acid” (priority 1984, dated 1988)",
  "key": {"[1]": {"system": "activity of analgesic drugs", "assay": "Hot-plate test, potentiation of analgesic drugs (Experiment 2)", "type": "in vivo, rats", "description": "Experiment No. 2: Hot-plate test\nThe method is that described by Eddy et al. (J. Pharmac. Exp. Ther. 107, 385 (1953)).\nGroups of five male rats having a weight of about 150 g, and which have not fasted, are used.\nThe animals are placed on a metal plate on the bottom of a transparent cylinder, which is heated to 55°±1° C. by an azeotropic boiling mixture (acetone-ethyl formate 1:1).\nThe reaction time is defined as the interval which passes between the moment at which the animal is placed on the hot-plate and the moment at which it either licks its feet or tries to jump out of the cylinder. The control reaction time is measured 10 and 5 minutes before administration of the drugs and 10, 20, 30, 45, 60 and 90 minutes afterwards. The animals are left on the plate for a maximum period of 30 seconds.\nThe response to the administration of the product is considered positive if at least a doubling of the normal reaction time is seen. The results obtained are given in Tables 2a and 2b which record the groups treated, the doses administered and the stay times on the plate expressed as the number of positive responses over the number treated."}, "[2]": {"system": "endogenous opiates analgesia", "assay": "Analgesic activity of endogenous opiates released by transcutaneous shock, Tail Flick Test (Experiment 3)", "type": "in vivo, rats", "description": "Experiment No. 3: Influence of several of the compounds of the invention on the analgesic activities of endogenous opiates released by transcutaneous shock in rats and measured by the Tail Flick Test\nThe method is that described by Lewis et al. J. Neurosc. 1, 358 […]. Male rats which have not fasted and have a weight of about 200 g are used.\nThe animals are stressed by the application of a 60 Hz-2.5 mA current to the front leg in pulses of a duration of 1 second every 5 seconds for 20 minutes.\nThis stress regime induces the release of endogenous opiates."}, "[3]": {"system": "enkephalinamide (DALA) analgesia", "assay": "Potentiation of DALA (enkephalinamide) analgesia, i.c.v., Tail Flick Test (Experiment 4)", "type": "in vivo, rats", "design": "scale not given here", "source_text": "Experiment No. 4: Potentiation of the analgesic activities of enkephalins induced by some of the compounds of the invention. […]"}, "[4]": {"system": "tolerance induced by morphine", "assay": "Antagonism to development of tolerance to repeated morphine HCl, Tail Flick Test (Experiment 5)", "conditions": "compound 10 mg/kg + morphine 5 mg/kg i.p.", "quoted_text": "Experiment No. 5: Antagonism of several products of the invention to the development of tolerance induced in rats by the repeated administration of morphine HCl.\nSeveral of the compounds of the invention were examined to determine their possible capacity to antagonise the development of tolerance induced by morphine. Groups of 6 male rats having a weight of about 200-250 grams were used.\nAt intervals of 24 hours from the first treatment (time 0) each animal (except the control group treated physiologically) received 5 mg/kg of morphine hydrochloride i.p. together with 10 mg/kg i.p. of the compounds indicated (with the exception of the group treated solely with morphine).\nThe determination of the pain threshold was effected 15', 30', 45' and 60' from the treatment by the Tail Flick Test."}},
  "data": [
    {"smiles": "CCCCN(CCCC)C(=O)CCC(NC(=O)c1ccc(Cl)c(Cl)c1)C(=O)O", "note": "[Compound D-2]", "values": [
      {"measurement": "TOTAL positives", "setting": "[1]; oxyphenylbutazone 50 + compound 3 mg/kg i.p.", "value": 12, "unit": "x/30"},
      {"measurement": "positive responses over number treated", "setting": "[1]; oxyphenylbutazone 50 + compound 3 mg/kg i.p., 10'", "value": "2/5"},
      {"measurement": "positive responses over number treated", "setting": "[1]; oxyphenylbutazone 50 + compound 3 mg/kg i.p., 20'", "value": "1/5"},
      {"measurement": "positive responses over number treated", "setting": "[1]; oxyphenylbutazone 50 + compound 3 mg/kg i.p., 30'", "value": "2/5"},
      {"measurement": "positive responses over number treated", "setting": "[1]; oxyphenylbutazone 50 + compound 3 mg/kg i.p., 45'", "value": "3/5"},
      {"measurement": "positive responses over number treated", "setting": "[1]; oxyphenylbutazone 50 + compound 3 mg/kg i.p., 60'", "value": "3/5"},
      {"measurement": "positive responses over number treated", "setting": "[1]; oxyphenylbutazone 50 + compound 3 mg/kg i.p., 90'", "value": "1/5"},
      {"measurement": "TOTAL positives", "setting": "[1]; oxyphenylbutazone 50 + compound 10 mg/kg i.p.", "value": 12, "unit": "x/30"},
      {"measurement": "positive responses over number treated", "setting": "[1]; oxyphenylbutazone 50 + compound 10 mg/kg i.p., 10'", "value": "1/5"},
      {"measurement": "positive responses over number treated", "setting": "[1]; oxyphenylbutazone 50 + compound 10 mg/kg i.p., 20'", "value": "1/5"},
      {"measurement": "positive responses over number treated", "setting": "[1]; oxyphenylbutazone 50 + compound 10 mg/kg i.p., 30'", "value": "3/5"},
      {"measurement": "positive responses over number treated", "setting": "[1]; oxyphenylbutazone 50 + compound 10 mg/kg i.p., 45'", "value": "3/5"},
      {"measurement": "positive responses over number treated", "setting": "[1]; oxyphenylbutazone 50 + compound 10 mg/kg i.p., 60'", "value": "2/5"},
      {"measurement": "positive responses over number treated", "setting": "[1]; oxyphenylbutazone 50 + compound 10 mg/kg i.p., 90'", "value": "2/5"},
      {"measurement": "TOTAL positives", "setting": "[1]; oxyphenylbutazone 50 + compound 30 mg/kg i.p.", "value": 23, "unit": "x/30"},
      {"measurement": "positive responses over number treated", "setting": "[1]; oxyphenylbutazone 50 + compound 30 mg/kg i.p., 10'", "value": "3/5"},
      {"measurement": "positive responses over number treated", "setting": "[1]; oxyphenylbutazone 50 + compound 30 mg/kg i.p., 20'", "value": "4/5"},
      {"measurement": "positive responses over number treated", "setting": "[1]; oxyphenylbutazone 50 + compound 30 mg/kg i.p., 30'", "value": "4/5"},
      {"measurement": "positive responses over number treated", "setting": "[1]; oxyphenylbutazone 50 + compound 30 mg/kg i.p., 45'", "value": "4/5"},
      {"measurement": "positive responses over number treated", "setting": "[1]; oxyphenylbutazone 50 + compound 30 mg/kg i.p., 60'", "value": "4/5"},
      {"measurement": "positive responses over number treated", "setting": "[1]; oxyphenylbutazone 50 + compound 30 mg/kg i.p., 90'", "value": "4/5"},
      {"measurement": "average latency, Tail Flick", "setting": "[2]; compound 1 mg/kg iv + stress, 5'", "value": "9.2 ± 0.53", "unit": "s"},
      {"measurement": "average latency, Tail Flick", "setting": "[2]; compound 1 mg/kg iv + stress, 10'", "value": "7.0 ± 0.86", "unit": "s"},
      {"measurement": "average latency, Tail Flick", "setting": "[2]; compound 1 mg/kg iv + stress, 15'", "value": "5.28 ± 0.64", "unit": "s"},
      {"measurement": "average latency, Tail Flick", "setting": "[2]; compound 3 mg/kg iv + stress, 5'", "value": "9.6 ± 0.46", "unit": "s"},
      {"measurement": "average latency, Tail Flick", "setting": "[2]; compound 3 mg/kg iv + stress, 10'", "value": "7.24 ± 0.58", "unit": "s"},
      {"measurement": "average latency, Tail Flick", "setting": "[2]; compound 3 mg/kg iv + stress, 15'", "value": "5.08 ± 0.52", "unit": "s"},
      {"measurement": "analgesic activity, Tail Flick", "setting": "[3]; DALA 10 + compound 0.003 μg/kg ICV, 10'", "value": 34.9},
      {"measurement": "analgesic activity, Tail Flick", "setting": "[3]; DALA 10 + compound 0.003 μg/kg ICV, 20'", "value": 54.0},
      {"measurement": "analgesic activity, Tail Flick", "setting": "[3]; DALA 10 + compound 0.003 μg/kg ICV, 30'", "value": 45.5},
      {"measurement": "analgesic activity, Tail Flick", "setting": "[3]; DALA 10 + compound 0.003 μg/kg ICV, 45'", "value": 27.5},
      {"measurement": "analgesic activity, Tail Flick", "setting": "[3]; DALA 10 + compound 0.003 μg/kg ICV, 60'", "value": 23.5},
      {"measurement": "analgesic activity, Tail Flick", "setting": "[3]; DALA 10 + compound 0.003 μg/kg ICV, 90'", "value": 14.9},
      {"measurement": "MEAN analgesic activity, Tail Flick", "setting": "[3]; DALA 10 + compound 0.003 μg/kg ICV", "value": 33.4},
      {"measurement": "analgesic activity, Tail Flick", "setting": "[3]; DALA 10 + compound 0.01 μg/kg ICV, 10'", "value": 38.2},
      {"measurement": "analgesic activity, Tail Flick", "setting": "[3]; DALA 10 + compound 0.01 μg/kg ICV, 20'", "value": 53.7},
      {"measurement": "analgesic activity, Tail Flick", "setting": "[3]; DALA 10 + compound 0.01 μg/kg ICV, 30'", "value": 52.6},
      {"measurement": "analgesic activity, Tail Flick", "setting": "[3]; DALA 10 + compound 0.01 μg/kg ICV, 45'", "value": 38.5},
      {"measurement": "analgesic activity, Tail Flick", "setting": "[3]; DALA 10 + compound 0.01 μg/kg ICV, 60'", "value": 33.7},
      {"measurement": "analgesic activity, Tail Flick", "setting": "[3]; DALA 10 + compound 0.01 μg/kg ICV, 90'", "value": 26.3},
      {"measurement": "MEAN analgesic activity, Tail Flick", "setting": "[3]; DALA 10 + compound 0.01 μg/kg ICV", "value": 40.5},
      {"measurement": "percentage variation in latency time (Effect %)", "setting": "[4]; 24 h", "value": 45.73, "unit": "%"},
      {"measurement": "percentage variation in latency time (Effect %)", "setting": "[4]; 48 h", "value": 59.50, "unit": "%"},
      {"measurement": "percentage variation in latency time (Effect %)", "setting": "[4]; 72 h", "value": 51.52, "unit": "%"},
      {"measurement": "percentage variation in latency time (Effect %)", "setting": "[4]; 96 h", "value": 43.40, "unit": "%"},
      {"measurement": "percentage variation in latency time (Effect %)", "setting": "[4]; 120 h", "value": 37.60, "unit": "%"},
      {"measurement": "percentage variation in latency time (Effect %)", "setting": "[4]; 144 h", "value": 21.43, "unit": "%"},
      {"measurement": "percentage variation in latency time (Effect %)", "setting": "[4]; 168 h", "value": 29.75, "unit": "%"},
      {"measurement": "percentage variation in latency time (Effect %)", "setting": "[4]; time 0", "value": 74.14, "unit": "%"}
    ]}
  ]
}
